Data on two compounds can be found in patent US20060063751A1, “Novel fused heterocycles and uses thereof” (AstraZeneca AB, priority 2003, published 2006).

This assay addresses T1, recombinant HsEg5 motor domain (amino acids 1-369-8His) (Homo sapiens, UniProt P52732).
T1 construct: Enzyme was recombinant HsEg5 motor domain (amino acids 1-369-8His); 8His (C)
T1 sequence (P52732 1-369): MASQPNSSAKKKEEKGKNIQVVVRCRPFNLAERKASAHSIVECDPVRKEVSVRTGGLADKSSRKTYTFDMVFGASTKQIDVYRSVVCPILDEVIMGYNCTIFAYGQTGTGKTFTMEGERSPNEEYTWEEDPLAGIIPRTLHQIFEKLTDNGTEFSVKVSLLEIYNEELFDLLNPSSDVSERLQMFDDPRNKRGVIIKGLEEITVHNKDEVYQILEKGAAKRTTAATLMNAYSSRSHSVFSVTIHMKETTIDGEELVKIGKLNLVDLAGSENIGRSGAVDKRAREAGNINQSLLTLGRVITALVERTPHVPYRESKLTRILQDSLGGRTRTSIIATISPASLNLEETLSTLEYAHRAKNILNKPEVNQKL
Put plainly: Malachite Green Assay (Eg5 motor ATPase, phosphate liberated from ATP). The class given is biochemical. As to the method: Enzymatic activity of the Eg5 motor and effects of inhibitors was measured using a malchite green assay, which measures phosphate liberated from ATP, and has been used previously to measure the activity of kinesin motors (Hackney and Jiang, 2001). Enzyme was recombinant HsEg5 motor domain (amino acids 1-369-8His) and was added at a final concentration of 6 nM to 100 μl reactions. Buffer consisted of 25 mM PIPES/KOH, pH 6.8, 2 mM MgCl2, 1 mM EGTA, 1 mM dtt, 0.01% Triton X-100 and 5 μM paclitaxel. Malachite green/ammonium molybdate reagent was prepared as follows: for 800 ml final volume, 0.27 g of Malachite Green (J. T. Baker) was dissolved in 600 ml of H2O in a polypropylene bottle. […]
5 μl of compound diluted in 12% DMSO was added to the wells of 96 well plates. […] The reactions were then quenched by the addition of 150 μl malachite green/ammonium molybdate reagent, and absorbance read at 650 nanometers exactly 5 min after quench using a Spectramax Plus plate reader (Molecular Devices). Data was graphed and IC50s calculated using ExCel Fit (Microsoft).
Enzymatic activity of the Eg5 motor and effects of inhibitors was measured using a malachite green assay, which measures phosphate liberated from ATP, and has been used previously to measure the activity of kinesin motors (Hackney and Jiang, 2001). […] Data was graphed and IC50s calculated using ExCel Fit (Microsoft).

In general, IC50 refers to the midpoint of a concentration-inhibition curve. Take `CCC(c1nc2snc(C)c2c(=O)n1Cc1ccccc1)N(CCCN)C(=O)c1cccc(Cl)c1Cl` (single isomer, unassigned; (+)) [Section 3: Example A7, (+) N-(3-Amino-propyl)-N-[1-(5-benzyl-3-methyl-4-oxo-4,5-dihydro-isothiazolo[5,4-d]pyrimidin-6-yl)-propyl]-2,3-dichloro-benzamide hydrogen chloride]: the IC50 was found to be 136 nM. `CCC(c1nc2c(C)nsc2c(=O)n1Cc1ccccc1)N(CCCN)C(=O)c1ccc(C)cc1` (centres unmarked) [Section 2: Example E1, N-(3-Amino-propyl)-N-[1-(6-benzyl-3-methyl-7-oxo-6,7-dihydro-isothiazolo[4,5-d]pyrimidin-5-yl)-propyl]-4-methyl-benzamide hydrogen chloride]: the concentration for half-maximal inhibition (IC50) was determined as 90 nM.
